Data published in patent US20250296959A1, “B7-H3 TARGETING PEPTIDES AND CONSTRUCTS THEREOF” (Mariana Oncology Inc., priority 2024, published 2025).
Starred links: 1 amine or outer side, 2 acyl side, 3 side chain; linkers in the order of their positions; H or OH if unused. Positions of bridges follow the written chain, without caps; N, C: chain ends. Non-standard residues stand in square brackets, D forms with d. Residues, ends and D or L forms follow the SMILES beside them. *: point of attachment. X2 = O=C(O)CN1CCN(CC(=O)O)CCN(CC(=O)NCCOCCOCCOCCOCC(=O)*)CCN(CC(=O)O)CC1; Phe(3-CH2NH2) = O=C([C@H](Cc1cccc(CN[*:3])c1)N[*:1])[*:2]; DOTA = O=C(O)CN1CCN(CC(=O)O)CCN(CC(=O)*)CCN(CC(=O)O)CC1; Phe(4-COOH) = N[C@@H](Cc1ccc(C(=O)O)cc1)C(=O)O; Trp(5-F) = N[C@@H](Cc1c[nH]c2ccc(F)cc12)C(=O)O; PEG8 = NCCOCCOCCOCCOCCOCCOCCOCCOCCC(=O)O; Ala(4-THP) = N[C@@H](CC1CCOCC1)C(=O)O; Tle = CC(C)(C)[C@H](N)C(=O)O; hLeu = CC(C)CC[C@H](N)C(=O)O; Nle = CCCC[C@H](N)C(=O)O; Orn = NCCC[C@H](N)C(=O)O

molecular target: T1, human 4lg B7-H3 (Homo sapiens, UniProt Q5ZPR3); assay: Affinity determination by surface plasmon resonance (SPR) to 4Ig B7-H3; details: SPR KD—25° C., 4Ig B7-H3; 25° C. flow cell temperature
T1 sequence (Q5ZPR3 29-534): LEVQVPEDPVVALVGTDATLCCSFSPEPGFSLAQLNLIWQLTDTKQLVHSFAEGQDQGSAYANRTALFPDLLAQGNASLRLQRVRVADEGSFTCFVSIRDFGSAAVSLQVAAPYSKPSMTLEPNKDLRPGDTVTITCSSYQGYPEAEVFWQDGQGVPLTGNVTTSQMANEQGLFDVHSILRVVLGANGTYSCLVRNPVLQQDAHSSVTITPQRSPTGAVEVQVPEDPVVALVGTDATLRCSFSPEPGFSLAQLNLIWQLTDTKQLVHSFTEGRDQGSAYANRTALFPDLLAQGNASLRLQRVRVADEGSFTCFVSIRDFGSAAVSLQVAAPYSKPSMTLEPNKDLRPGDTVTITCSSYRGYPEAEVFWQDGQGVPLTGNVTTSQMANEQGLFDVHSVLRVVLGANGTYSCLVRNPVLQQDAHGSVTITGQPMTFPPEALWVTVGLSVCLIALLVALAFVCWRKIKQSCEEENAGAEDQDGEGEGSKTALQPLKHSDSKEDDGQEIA

Row | Structure (SMILES) | Kd
1 | CCCC[C@H](NC(C)=O)C(=O)N[C@@H](Cc1ccc(O)cc1)C(=O)N[C@H]1CSSC[C@@H](C(=O)N[C@@H](Cc2c[nH]c3ccccc23)C(=O)N[C@@H](Cc2ccccc2)C(=O)N[C@@H](CCCN)C(=O)N[C@H](CCCCNC(=O)CN2CCN(CC(=O)O)CCN(CC(=O)O)CCN(CC(=O)O)CC2)C(N)=O)NC(=O)[C@H](Cc2ccc(O)cc2)NC(=O)[C@H](C(C)C)NC(=O)[C@H](CC(=O)O)NC(=O)[C@H](Cc2ccc(O)cc2)NC(=O)[C@H](CCCCN)NC(=O)CNC(=O)[C@H](C(C)C)NC1=O [compound 87, Ac-Nle-Y-C-V-G-K-Y-D-V-Y-C-W-F-Orn-dLys(DOTA)-CONH2] (Ac-[Nle]YCVGKYDVYCWF[Orn][dK](DOTA)-NH2; disulfide 3-11) | 10 to 100 nM
2 | CCCC[C@H](NC(C)=O)C(=O)N[C@@H](Cc1ccc(O)cc1)C(=O)N[C@H]1CSSC[C@@H](C(=O)N[C@@H](Cc2c[nH]c3ccccc23)C(=O)N[C@@H](Cc2ccccc2)C(=O)N[C@H](C(N)=O)[C@@H](C)O)NC(=O)[C@H](Cc2ccc(O)cc2)NC(=O)[C@H](C(C)C)NC(=O)[C@H](CC(=O)O)NC(=O)[C@H](Cc2ccc(O)cc2)NC(=O)[C@H](CCCCN)NC(=O)CNC(=O)[C@H](C(C)C)NC1=O [compound 32, Ac-Nle-Y-C-V-G-K-Y-D-V-Y-C-W-F-Thr-CONH2] (Ac-[Nle]YCVGKYDVYCWFT-NH2; disulfide 3-11) | 1 to 10 nM

More lines, now with the values ahead:

Row | Kd | Structure (SMILES)
3 | 1 to 10 nM | CC(=O)N[C@@H](CCC(C)C)C(=O)N[C@@H](Cc1ccc(O)cc1)C(=O)N[C@H]1CSSC[C@@H](C(=O)N[C@@H](Cc2c[nH]c3ccc(F)cc23)C(=O)N[C@@H](Cc2ccccc2)C(=O)N2CCC[C@H]2C(=O)N[C@H](CCCCNC(=O)COCCOCCOCCOCCNC(=O)CN2CCN(CC(=O)O)CCN(CC(=O)O)CCN(CC(=O)O)CC2)C(=O)O)NC(=O)[C@H](Cc2ccc(O)cc2)NC(=O)[C@H](C(C)C)NC(=O)[C@H](CC(=O)O)NC(=O)[C@H](CC2CCOCC2)NC(=O)[C@H](CCCCN)NC(=O)CNC(=O)[C@H](C(C)(C)C)NC1=O [compound 307, Ac-hLeu-Y-C-Tbg-G-K-ThpA-D-V-Y-C-5FW-F-Pro-dLys(PEG4-DOTA)-COOH] (Ac-[hLeu]YC[Tle]GK[Ala(4-THP)]DVYC[Trp(5-F)]FP[dK](X2)-OH; disulfide 3-11)
4 | 10 to 100 nM | CCCC[C@@H]1NC(=O)[C@H](C(C)C)NC(=O)[C@H](CC(=O)O)NC(=O)[C@H](Cc2ccc(C(=O)O)cc2)NC(=O)[C@H](CCCCN)NC(=O)CNC(=O)[C@H](C(C)C)NC(=O)[C@@H](NC(=O)[C@H](Cc2ccc(O)cc2)NC(=O)[C@H](CCC(C)C)NC(=O)CCOCCOCCOCCOCCOCCOCCOCCOCCNC(=O)CN2CCN(CC(=O)O)CCN(CC(=O)O)CCN(CC(=O)O)CC2)CSSC[C@@H](C(=O)N[C@@H](Cc2c[nH]c3ccc(F)cc23)C(=O)N[C@@H](Cc2ccccc2)C(=O)N2CCC[C@H]2C(N)=O)NC1=O [compound 293, DOTA-PEG8-hLeu-Y-C-V-G-K-4COOHPhe-D-V-Nle-C-5FW-F-Pro-CONH2] ({DOTA-PEG8}-[hLeu]YCVGK[Phe(4-COOH)]DV[Nle]C[Trp(5-F)]FP-NH2; disulfide 3-11)
5 | 10 to 100 nM | CC(=O)N[C@@H](CCC(C)C)C(=O)N[C@@H](Cc1ccc(O)cc1)C(=O)N[C@H]1CSSC[C@@H](C(=O)N[C@@H](Cc2c[nH]c3ccc(F)cc23)C(=O)N[C@@H](Cc2ccccc2)C(=O)N2CCC[C@H]2C(=O)O)NC(=O)[C@H](Cc2ccc(O)cc2)NC(=O)[C@H](C(C)C)NC(=O)[C@H](CC(=O)O)NC(=O)[C@H](Cc2cccc(CNC(=O)CN3CCN(CC(=O)O)CCN(CC(=O)O)CCN(CC(=O)O)CC3)c2)NC(=O)[C@H](CCCCN)NC(=O)CNC(=O)[C@H](C(C)C)NC1=O [compound 262, Ac-hLeu-Y-C-V-G-K-MAF(DOTA)-D-V-Y-C-5FW-F-Pro-COOH] (Ac-[hLeu]YCVGK[Phe(3-CH2NH2)](DOTA)DVYC[Trp(5-F)]FP-OH; disulfide 3-11)

same assay, conditions: SPR KD—37° C., 4Ig B7-H3; 37° C. flow cell temperature

Row | Kd | Structure (SMILES)
6 | 10 to 100 nM | CCCC[C@H](NC(C)=O)C(=O)N[C@@H](Cc1ccc(O)cc1)C(=O)N[C@H]1CSSC[C@@H](C(=O)N[C@@H](Cc2c[nH]c3ccccc23)C(=O)N[C@@H](Cc2ccccc2)C(=O)N[C@H](C(N)=O)[C@@H](C)O)NC(=O)[C@H](Cc2ccc(O)cc2)NC(=O)[C@H](C(C)C)NC(=O)[C@H](CC(=O)O)NC(=O)[C@H](Cc2ccc(O)cc2)NC(=O)[C@H](CCCCN)NC(=O)CNC(=O)[C@H](C(C)C)NC1=O [compound 32, Ac-Nle-Y-C-V-G-K-Y-D-V-Y-C-W-F-Thr-CONH2] (Ac-[Nle]YCVGKYDVYCWFT-NH2; disulfide 3-11)
